One may read the IC50 as the concentration at which inhibition is half-maximal.

The assay deals with T1, human CXCR2 receptor (Homo sapiens, UniProt P25025).
T1 construct: purchased Biosignal Packard Inc; host or cells: CHO-K1 (Chinese hamster ovary) cell membranes
T1 sequence (P25025 1-360): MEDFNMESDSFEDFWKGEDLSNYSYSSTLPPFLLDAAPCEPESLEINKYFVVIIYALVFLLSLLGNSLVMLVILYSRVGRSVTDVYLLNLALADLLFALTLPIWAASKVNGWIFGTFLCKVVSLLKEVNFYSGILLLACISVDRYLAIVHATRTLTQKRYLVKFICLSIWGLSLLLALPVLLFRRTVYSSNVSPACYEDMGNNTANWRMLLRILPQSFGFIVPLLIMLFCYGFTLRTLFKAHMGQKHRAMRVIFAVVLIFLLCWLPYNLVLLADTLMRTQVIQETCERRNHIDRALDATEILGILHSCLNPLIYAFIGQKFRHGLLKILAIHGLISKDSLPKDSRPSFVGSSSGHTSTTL
Put plainly: [35S]-GTPγS binding assay for human CXCR2 receptor using SPA technology. The assay is classed as biochemical. Conditions: CHO-K1 membranes expressing human CXCR2, 100 nM IL-8. An excerpt:
[^35S]-GTPγS Binding Assay for Human CXCR2 Receptor Using SPA Technology
[^35S]-GTPγS (with specific activity 1082 Ci/mmol) and wheat germ agglutinin poly vinyl toluene scintillation proximity beads are purchased from Amersham Pharmacia Biotech. The Chinese hamster ovary cell (CHO-K1) membranes expressing human CXCR2 receptors are purchased from Biosignal Packard Inc. All other chemicals are of analytical grade. White non-binding surface 96 well Optiplate™ microplates are obtained from Packard. Recombinant human IL-8 is synthesised, cloned and expressed in Escherichia coli as described previously (Lindley I, et al., Proc. Natl. Acad. Sci., 1988, 85(23):9199).
The assay is performed in duplicate in 96 well Optiplate™ microplate in a final volume of 250 μl per well. Compounds are diluted in DMSO (0.5% final concentration) and incubated in 20 mM HEPES buffer pH 7.4 containing 10 mM MgCl2, 100 mM NaCl, 1 mM EDTA plus 100 nM IL-8, 50 μM GDP and 500 pM [^35S]GTPγS per well. SPA beads (1 mg/well final concentration) were pre-mixed with the membranes (10 μg/well final concentration) in assay buffer: 20 mM HEPES buffer pH 7.4 containing 10 mM MgCl2, 100 mM NaCl, 1 mM EDTA. The bead membrane mixture is added to each well, plates are sealed and incubated at room temperature for 60 minutes. The plate is centrifuged and read on Packard TopCount™ scintillation counter, program [^35S dpm] for 1 min/well. Data are expressed as the % response to 100 nM IL-8 minus basal.
(GTPγS resists hydrolysis and so accumulates on activated G proteins.)
Compound `CC[C@@H](Nc1c(Nc2ccc(Cl)c(S(=O)(=O)N3C[C@H](O)CO3)c2O)c(=O)c1=O)[C@H]1CC[C@@H](C)O1` [Example 2.32, 3-(4-chloro-2-hydroxy-3-((S)-4-hydroxyisoxazolidin-2-ylsulfonyl)phenylamino)-4-((R)-1-((2R,5R)-5-methyltetrahydrofuran-2-yl)propylamino)cyclobut-3-ene-1,2-dione] registered an IC50 of 11 nM.

Consider `CON(C)S(=O)(=O)c1c(Cl)ccc(Nc2c(N[C@H](C)c3cnn(C)c3)c(=O)c2=O)c1O` [Example 2.95, (R)-6-chloro-2-hydroxy-N-methoxy-N-methyl-3-(2-(1-(1-methyl-1H-pyrazol-4-yl)ethylamino)-3,4-dioxocyclobut-1-enylamino)benzenesulfonamide], for which the IC50 worked out at 283 nM. As for `CC[C@@H](Nc1c(Nc2ccc(Cl)c(S(=O)(=O)N(CC)OC)c2O)c(=O)c1=O)c1ccc(C)o1` [Example 2.43, (R)-6-chloro-N-ethyl-2-hydroxy-N-methoxy-3-(2-(1-(5-methylfuran-2-yl)propylamino)-3,4-dioxocyclobut-1-enylamino)benzenesulfonamide], the figure is 17 nM; as for `CCC(Nc1c(Nc2ccc(Cl)c(S(=O)(=O)N(C)OC)c2O)c(=O)c1=O)[C@H]1CCCO1` (stereo in doubt) [Example 4, 6-Chloro-3-{3,4-dioxo-2-[(R)-1-(tetrahydro-furan-2-yl)-propylamino]-cyclobut-1-enylamino}-2-hydroxy-N-methoxy-N-methyl-benzenesulfonamide], 13 nM. In turn, `CCCC(CCC)Nc1c(Nc2ccc(Cl)c(S(=O)(=O)N(C)OC)c2O)c(=O)c1=O` [Example 2.57, 6-chloro-3-(2-(heptan-4-ylamino)-3,4-dioxocyclobut-1-enylamino)-2-hydroxy-N-methoxy-N-methylbenzenesulfonamide] had an IC50 of 26 nM. Compared with the last compound, the IC50 is about 2-fold higher. `CCOC[C@H](C)Nc1c(Nc2ccc(Cl)c(S(=O)(=O)N(C)OC)c2O)c(=O)c1=O` [Example 2.47, (S)-6-chloro-3-(2-(1-ethoxypropan-2-ylamino)-3,4-dioxocyclobut-1-enylamino)-2-hydroxy-N-methoxy-N-methylbenzenesulfonamide] showed an IC50 of 19 nM.

Turning to `CON(C)S(=O)(=O)c1c(Cl)ccc(Nc2c(NC(C)C)c(=O)c2=O)c1O` [Example 2.35, 6-chloro-2-hydroxy-3-(2-(isopropylamino)-3,4-dioxocyclobut-1-enylamino)-N-methoxy-N-methylbenzenesulfonamide], the IC50 worked out at 14 nM. The IC50 values of the last two compounds are within 1.5-fold of each other. `CC[C@@H](Nc1c(Nc2ccc(Cl)c(S(=O)(=O)N(C)OC)c2O)c(=O)c1=O)c1ccccn1` [Example 7, 6-Chloro-3-[3,4-dioxo-2-((R)-1-pyridin-2-yl-propylamino)-cyclobut-1-enylamino]-2-hydroxy-N-methoxy-N-methyl-benzenesulfonamide] had an IC50 of 4 nM. Against the preceding compound, the IC50 is about 3.5-fold lower. To `CON(C)S(=O)(=O)c1c(Cl)ccc(Nc2c(NC3CCCC3)c(=O)c2=O)c1O` [Example 2.60, 6-chloro-3-(2-(cyclopentylamino)-3,4-dioxocyclobut-1-enylamino)-2-hydroxy-N-methoxy-N-methylbenzenesulfonamide] belongs 30 nM; to `CCC(CC)Nc1c(Nc2ccc(Cl)c(S(=O)(=O)N(C)OC)c2O)c(=O)c1=O` [Example 8, 6-Chloro-3-[2-(1-ethyl-propylamino)-3,4-dioxo-cyclobut-1-enylamino]-2-hydroxy-N-methoxy-N-methyl-benzenesulfonamide], 5 nM; to `CCC(Nc1c(Nc2ccc(Cl)c(S(=O)(=O)N(C)OC)c2O)c(=O)c1=O)c1cccc(C)n1` (stereo not shown) [Example 2.27, 6-chloro-2-hydroxy-N-methoxy-N-methyl-3-(2-(1-(6-methylpyridin-2-yl)propylamino)-3,4-dioxocyclobut-1-enylamino)benzenesulfonamide], 234 nM. On to `CON(C)S(=O)(=O)c1c(Cl)ccc(Nc2c(N[C@H]3CCSC3)c(=O)c2=O)c1O` [Example 3, 6-Chloro-3-{3,4-dioxo-2-[(S)-(tetrahydro-thiophen-3-yl)amino]-cyclobut-1-enylamino}-2-hydroxy-N-methoxy-N-methyl-benzenesulfonamide], for which the IC50 is 26 nM.

`CC[C@@H](Nc1c(Nc2ccc(Cl)c(S(=O)(=O)N(CC)OC)c2O)c(=O)c1=O)[C@H]1CCCO1` [Example 2.13, 6-Chloro-3-{3,4-dioxo-2-[(R)-(R)-1-(tetrahydro-furan-2-yl)-propylamino]-cyclobut-1-enylamino}-N-ethyl-2-hydroxy-N-methoxy-benzene sulfonamide] showed an IC50 of 6 nM. Against the preceding compound, the IC50 is about 4.3-fold lower. `CCN(OC)S(=O)(=O)c1c(Cl)ccc(Nc2c(N[C@H](C)c3ccccc3)c(=O)c2=O)c1O` [Example 2.58, (R)-6-chloro-3-(3,4-dioxo-2-(1-phenylethylamino)cyclobut-1-enylamino)-N-ethyl-2-hydroxy-N-methoxybenzenesulfonamide] displayed an IC50 of 28 nM. `COCC(C)Nc1c(Nc2ccc(Cl)c(S(=O)(=O)N(C)OC)c2O)c(=O)c1=O` (stereo not shown) [Example 2.23, 6-chloro-2-hydroxy-N-methoxy-3-(2-(1-methoxypropan-2-ylamino)-3,4-dioxocyclobut-1-enylamino)-N-methylbenzenesulfonamide] had an IC50 of 21 nM.

`CON(C)S(=O)(=O)c1c(Cl)ccc(Nc2c(NC(C3CC3)C3CC3)c(=O)c2=O)c1O` [Example 2.17, 6-chloro-3-(2-(dicyclopropylmethylamino)-3,4-dioxocyclobut-1-enylamino)-2-hydroxy-N-methoxy-N-methylbenzenesulfonamide]: the IC50 stood at 8 nM. As to `CCN(OC)S(=O)(=O)c1c(Cl)ccc(Nc2c(NC(C)C)c(=O)c2=O)c1O` [Example 2.19, 6-chloro-N-ethyl-2-hydroxy-3-(2-(isopropylamino)-3,4-dioxocyclobut-1-enylamino)-N-methoxybenzenesulfonamide], the IC50 was found to be 9 nM.

In turn, `CC[C@@H](Nc1c(Nc2cccc(S(=O)(=O)N(CC)OC)c2O)c(=O)c1=O)[C@@H]1CCCO1` [Example 2.71, 3-(3,4-dioxo-2-((R)-1-((S)-tetrahydrofuran-2-yl)propylamino)cyclobut-1-enylamino)-N-ethyl-2-hydroxy-N-methoxybenzenesulfonamide] registered an IC50 of 56 nM. `CON(C)S(=O)(=O)c1c(Cl)ccc(Nc2c(N[C@H](C)c3ccccc3)c(=O)c2=O)c1O` [Example 5, 6-Chloro-3-[3,4-dioxo-2-((R)-1-phenyl-ethylamino)-cyclobut-1-enylamino]-2-hydroxy-N-methoxy-N-methyl-benzenesulfonamide] showed an IC50 of 33 nM.

On to `CCC(Nc1c(Nc2ccc(Cl)c(S(=O)(=O)N(C)OC)c2O)c(=O)c1=O)c1cccnc1` (stereo not shown) [Example 2.50, 6-chloro-3-(3,4-dioxo-2-(1-(pyridin-3-yl)propylamino)cyclobut-1-enylamino)-2-hydroxy-N-methoxy-N-methylbenzenesulfonamide], for which the IC50 was 93 nM. In turn, `CC[C@@H](Nc1c(Nc2ccc(Cl)c(S(=O)(=O)N(C)OC)c2O)c(=O)c1=O)[C@H]1CC[C@@H](C)O1` [Example 6, 6-Chloro-2-hydroxy-N-methoxy-N-methyl-3-{2-[(R)-1-((2R,5R)-5-methyl-tetrahydro-furan-2-yl)-propylamino]-3,4-dioxo-cyclobut-1-enylamino}-benzene sulfonamide] gave an IC50 of 28 nM. Regarding `CC[C@@H](Nc1c(Nc2ccc(Cl)c(S(=O)(=O)N(C)OC)c2O)c(=O)c1=O)c1ccc(C)o1` [Example 2, 6-Chloro-2-hydroxy-N-methoxy-N-methyl-3-{2-[(R)-1-(5-methyl-furan-2-yl)-propylamino]-3,4-dioxo-cyclobut-1-enylamino}-benzenesulfonamide], the half-inhibitory concentration (IC50) is 2 nM. Against the preceding compound, the IC50 is about 14-fold lower.

(Values after patent US7989497B2, “Squaramide derivatives as CXCR2 antagonist” (Novartis AG, priority 2008, dated 2011).)
